# From patent US20250161391A1, “UROLITHIN COMBINATION” (Amazentis SA, priority 2023, published 2025)
# Entries after “also recorded” stand apart in the source; their conditions may differ.
# Tested on: mouse IL-6
# Assay: IL-6 ELISA on culture medium of differentiated C2C12 cells exposed to a cytokine mixture (cytomix, CTX)
# Format: cell-based
# Settings: for % reduction IL-6: C2C12, 24 h pre-treatment, then 24 h with cytomix; for IL-6 / anti-inflammatory effect (FIG. 1): pre-treatment for 24 hours at 3.125 μM alone
# Experimental: C2C12 Myoblasts purchased from ATCC (ref. CRL-1772) were seeded at 8000 cells per well in a 96 well plate (Greiner) using a DMEM Glutamax 4.5g D-glucose (Gibco, ref 31966021) supplemented with FIBS 10% (PanBiotech, ref P190902), 1% PenStrep (Biowest) and 1% Hepes (Biowest). Cells were then differentiated for 6 days using a differentiation medium (DMEM Glutamax 4.5g D-glucose (Gibco, ref 31966021), 2% Horse serum (Thermofisher, ref 160501229) 1% PenStrep and 1% Hepes). All media were sterilized with a 0.45 um filter unit (VWR). After 4 days of the differentiation cells were treated for 24 h with 1) Urolithin A (UA) resuspended in DMSO, 2) ginsenoside […]-3832) or 3) a combination of the two at the indicated doses. A cytokine mixture (“cytomix”) was added at day 5 in addition of the previous treatment for another 24 h, cytokines were respectively used at 5ng (mIFN-γ (Roche ref. 11276905001), TNF-α (Peprotech ref. 300-01A) and IL-1β (Proteintech ref. 200-01B)). The medium was collected and an ELISA for Interleukin-6 were performed following the instruction provided by the supplier (Proteintech ref. KE10007). In particular, the IL-6 ELISA kit is to be used to detect and quantify protein levels of endogenous mouse IL-6. The assay recognizes mouse IL-6. An antibody specific for mouse IL-6 has been pre-coated onto the microwells. The IL-6 protein in samples is captured by the coated antibody after incubation. Following extensive washing, another antibody of biotinylated specific for mouse IL-6 is added to detect the captured mouse IL-6 protein. For signal development, Streptavidin-HRP is added, followed by Tetramethyl-benzidine (TMB) reagent. Solution containing sulfuric acid is used to stop colour development and the colour intensity which is proportional to the quantity of bound protein is measurable at 450 nm with the correction wavelength set at 630 nm, using a microplate plate reader (Fluostar Optima, BMG Labtech). We exposed of C2C12 to a mix of pro-inflammatory cytokines (cytomix, CTX) to induce inflammation signals. Interleukin-6 (IL-6), a multifunctional cytokine produced in cells and induced by a variety of stimulating signals. IL-6 production and release in the media is a proxy of the inflammation induced by treatment with the cytokines part of the cytomix (Tosato & Jones (1990) Blood 75(6), 1305-10). With cytomix treatment, we observed a significant increase in Interleukin 6 (IL-6) secretion, measured as the concentration of IL-6 in the cell culture media.
SMILES,% reduction IL-6 (CTX 5 ng vs. Rg1 3.125 μM + CTX),IL-6 / anti-inflammatory effect (FIG. 1) (cytomix-treated C2C12),"IL-6 / anti-inflammatory effect (FIG. 1) (cytomix-treated C2C12, listed as Rg1)","IL-6 (FIG. 1) (pre-treatment for 24 hours at 12.5 μM, cytomix-treated C2C12)","IL-6 (FIG. 1) (pre-treatment for 24 hours at 100 μM, cytomix-treated C2C12)","IL-6, dose dependence (FIG. 1) (pre-treatment for 24 hours, 3.125 to 100 μM, cytomix-treated C2C12)",% reduction IL-6 (CTX 5 ng vs. UA 6.25 μM + CTX) [%],"IL-6 secretion (FIG. 1) (pre-treatment for 24 hours at 6.25 μM, cytomix-treated C2C12)"
"CC(C)=CCC[C@](C)(O[C@@H]1O[C@H](CO)[C@@H](O)[C@H](O)[C@H]1O)[C@H]1CC[C@]2(C)[C@@H]1[C@H](O)C[C@@H]1[C@@]3(C)CC[C@H](O)C(C)(C)[C@@H]3[C@@H](O[C@@H]3O[C@H](CO)[C@@H](O)[C@H](O)[C@H]3O)C[C@]12C [Ginsenoside Rg1, ginsenoside Rg1]",+9.8%,no effects,did not show any anti-inflammatory effect alone; also recorded: no effects,non-significant trend in reduction,significant decrease,dose dependent decrease in IL-6,,
O=c1oc2cc(O)ccc2c2ccc(O)cc12 [Urolithin A],,,,,,,−16,significantly decreased IL-6 secretion
